According to PubChem BioAssay AID1845203 (Molecular Pharmacology Branch, DTP, NCI, 2023):

System: G-401 tumor spheroids, viability % test/control
Experiment: Anticancer human tumor G-401 cell line growth inhibition;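 note: spheroids exposed to compound for 7 days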;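 for viability, T/C: 100% = DMSO vehicle-treated spheroids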
Settings: spheroids with HUVEC and MSC; for IC50: curve of first compound; for viability, T/C: stronger effect = lower value
Outline: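 Complex tumor spheroids combined malignant cells with endothelial cells and mesenchymal stem cells. DNA-damaging drugs and DNA repair inhibitors were tested alone and in combination, at half-log dilutions down from clinical Cmax (top 10 microM if Cmax unknown), 0.25% DMSO final.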

[1] = second compound 30 pM, first compound 0.00949 µM
[2] = second compound 30 pM, first compound 0.03 µM
[3] = second compound 30 pM, first compound 0.0949 µM
[4] = second compound 30 pM, first compound 0.3 µM
[5] = second compound 30 pM, first compound 0.949 µM
[6] = second compound 30 pM, first compound 3 µM
[7] = second compound 94.9 pM, first compound 0.00949 µM
[8] = second compound 94.9 pM, first compound 0.03 µM
[9] = second compound 94.9 pM, first compound 0.0949 µM
[10] = second compound 94.9 pM, first compound 0.3 µM
[11] = second compound 94.9 pM, first compound 0.949 µM
[12] = second compound 94.9 pM, first compound 3 µM
[13] = second compound 0.0003 µM, first compound 0.00949 µM
[14] = second compound 0.0003 µM, first compound 0.03 µM
[15] = second compound 0.0003 µM, first compound 0.0949 µM
[16] = second compound 0.0003 µM, first compound 0.3 µM
[17] = second compound 0.0003 µM, first compound 0.949 µM
[18] = second compound 0.0003 µM, first compound 3 µM
[19] = second compound 0.000949 µM, first compound 0.00949 µM
[20] = second compound 0.000949 µM, first compound 0.03 µM
[21] = second compound 0.000949 µM, first compound 0.0949 µM
[22] = second compound 0.000949 µM, first compound 0.3 µM
[23] = second compound 0.000949 µM, first compound 0.949 µM
[24] = second compound 0.000949 µM, first compound 3 µM
[25] = second compound 0.003 µM, first compound 0.00949 µM
[26] = second compound 0.003 µM, first compound 0.03 µM
[27] = second compound 0.003 µM, first compound 0.0949 µM
[28] = second compound 0.003 µM, first compound 0.3 µM
[29] = second compound 0.003 µM, first compound 0.949 µM
[30] = second compound 0.003 µM, first compound 3 µM

| SMILES | IC50 (second compound 30 pM) [nM] | IC50 (second compound 94.9 pM) [nM] | IC50 (second compound 0.0003 µM) [nM] | IC50 (second compound 0.000949 µM) [nM] | IC50 (second compound 0.003 µM) [nM] | viability, T/C [3] [%] | viability, T/C [4] [%] | viability, T/C [5] [%] | viability, T/C [6] [%] | viability, T/C [9] [%] | viability, T/C [10] [%] | viability, T/C [11] [%] | viability, T/C [12] [%] | viability, T/C [15] [%] | viability, T/C [16] [%] | viability, T/C [17] [%] | viability, T/C [18] [%] | viability, T/C [21] [%] | viability, T/C [22] [%] | viability, T/C [23] [%] | other results |
| --- | --- | --- | --- | --- | --- | --- | --- | --- | --- | --- | --- | --- | --- | --- | --- | --- | --- | --- | --- | --- | --- |
| CNCc1ccc(-c2cc(-c3nc(-c4ccc(S(=O)(=O)C(C)C)cc4)cnc3N)on2)cc1 + COc1cc2c(cc1O)CCNC21CSC2c3c(OC(C)=O)c(C)c4c(c3C(COC1=O)N1C(O)C3Cc5cc(C)c(OC)c(O)c5C(C21)N3C)OCO4 | 1420 | 529 | 10.3 | < 9.49 | < 9.49 | 103 | 88.7 | 58.4 | 35 | 89.9 | 60.5 | 39.5 | 25.8 | 38.2 | 25.9 | 24.1 | 18.6 | 12.2 | 18.3 | 19.3 | viability, T/C [1]: 100%; viability, T/C [2]: 95.5%; viability, T/C [7]: 94.4%; viability, T/C [8]: 94.8%; viability, T/C [13]: 48%; viability, T/C [14]: 51.4%; viability, T/C [19]: 9.02%; viability, T/C [20]: 10.5%; viability, T/C [24]: 9.87%; viability, T/C [25]: 0.14%; viability, T/C [26]: 0.14%; viability, T/C [27]: 0.22%; viability, T/C [28]: 0.29%; viability, T/C [29]: 0.89%; viability, T/C [30]: 0.21% |
| Cc1sc2c(c1C)C(c1ccc(Cl)cc1)=NC(CC(=O)Nc1ccc(O)cc1)c1nnc(C)n1-2 (stereo not given) + COc1cc2c(cc1O)CCNC21CSC2c3c(OC(C)=O)c(C)c4c(c3C(COC1=O)N1C(O)C3Cc5cc(C)c(OC)c(O)c5C(C21)N3C)OCO4 | 160 | 115 | < 9.49 | < 9.49 | < 9.49 | 63.9 | 34.8 | 17.8 | 8.07 | 55.1 | 31.3 | 12 | 5.01 | 27.1 | 9.01 | 4.45 | 1.34 | 19.1 | 1.51 | 0.15 | viability, T/C [1]: 102%; viability, T/C [2]: 83.3%; viability, T/C [7]: 92.8%; viability, T/C [8]: 74.7%; viability, T/C [13]: 35.1%; viability, T/C [14]: 38.7%; viability, T/C [19]: 19.8%; viability, T/C [20]: 3.94%; viability, T/C [24]: 0.16%; viability, T/C [25]: 0.08%; viability, T/C [26]: 0.07%; viability, T/C [27]: 0.12%; viability, T/C [28]: 0.13%; viability, T/C [29]: 0.12%; viability, T/C [30]: 0.24% |
| Cn1ncnc1[C@H]1c2n[nH]c(=O)c3cc(F)cc(c23)N[C@@H]1c1ccc(F)cc1 + COc1cc2c(cc1O)CCNC21CSC2c3c(OC(C)=O)c(C)c4c(c3C(COC1=O)N1C(O)C3Cc5cc(C)c(OC)c(O)c5C(C21)N3C)OCO4 | 72.5 | < 9.49 | < 9.49 | < 9.49 | < 9.49 | 46 | 30.6 | 19.6 | 10.8 | 34.1 | 26.2 | 17.9 | 9.94 | 21.5 | 19.1 | 11.2 | 7.83 | 5.35 | 5.74 | 2.94 | viability, T/C [1]: 70.6%; viability, T/C [2]: 62%; viability, T/C [7]: 48.4%; viability, T/C [8]: 47.3%; viability, T/C [13]: 25.6%; viability, T/C [14]: 26.4%; viability, T/C [19]: 6.63%; viability, T/C [20]: 5.61%; viability, T/C [24]: 0.23%; viability, T/C [25]: 0.15%; viability, T/C [26]: 0.13%; viability, T/C [27]: 0.13%; viability, T/C [28]: 0.15%; viability, T/C [29]: 0.14%; viability, T/C [30]: 0.21% |
| O=C(c1cc(Cc2n[nH]c(=O)c3ccccc23)ccc1F)N1CCN(C(=O)C2CC2)CC1 + COc1cc2c(cc1O)CCNC21CSC2c3c(OC(C)=O)c(C)c4c(c3C(COC1=O)N1C(O)C3Cc5cc(C)c(OC)c(O)c5C(C21)N3C)OCO4 | 9070 | 6010 | < 94.9 | < 94.9 | < 94.9 | 80.3 | 97 | 88.3 | 77.8 | 89.4 | 78.8 | 82.2 | 71.5 | 32.3 | 37.4 | 39.3 | 29.5 | 10.1 | 5.68 | 7.52 | viability, T/C (second compound 30 pM, first compound 9.49 µM): 49.1%; viability, T/C (second compound 30 pM, first compound 30 µM): 30.1%; viability, T/C (second compound 94.9 pM, first compound 9.49 µM): 35.9%; viability, T/C (second compound 94.9 pM, first compound 30 µM): 25.7%; viability, T/C (second compound 0.0003 µM, first compound 9.49 µM): 18.7%; viability, T/C (second compound 0.0003 µM, first compound 30 µM): 16.2%; viability, T/C [24]: 6.02%; viability, T/C (second compound 0.000949 µM, first compound 9.49 µM): 5.03%; viability, T/C (second compound 0.000949 µM, first compound 30 µM): 1.6%; viability, T/C [27]: 0.13%; viability, T/C [28]: 0.15%; viability, T/C [29]: 0.12%; viability, T/C [30]: 0.18%; viability, T/C (second compound 0.003 µM, first compound 9.49 µM): 0.2%; viability, T/C (second compound 0.003 µM, first compound 30 µM): 0.24% |
